Measured values taken from ChEMBL document CHEMBL1201862, “PubChem BioAssay data set” (2004).
Active and inactive are the calls of the source.

What was measured:
Fatty acid synthase [1] = target: T1, Fatty acid synthase (Homo sapiens, UniProt P49327); assay: inhibition of human FAS-TE enzyme activity – biochemical, kinetic fluorescence intensity, dose response (AID 624326); format: functional;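 further: rate of fluorescence rise from hydrolysis of a fluorogenic O-methyl fluorescein ester substrate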
Fatty acid synthase [2] = target: T1, Fatty acid synthase; assay: inhibition of human FAS-TE enzyme activity – biochemical, endpoint fluorescence intensity, uHTS hits, dose response (AID 624327); format: functional;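 further: fluorescence from hydrolysis of an O-methyl fluorescein acyl ester substrate by the enzyme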
[3] = NIH-3T3 fibroblast cytotoxicity, dose response, cytotoxicity control, cell-based, fluorescence, Alamar Blue, secondary assay (AID 2327); format: functional;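 further: NIH-3T3 mouse fibroblasts cultured with fluconazole at 8 µg/mL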
[4] = Luminescence Cell-Based Dose Response HTS to Identify Inhibitors of 5'UTR Stem-Loop Driven Prion Protein mRNA Translation in H4 Neuroglioblastoma Cells. [Related pubchem assays: 1827 (Project Summary), 1813 (Primary HTS)]; format: functional
cells [5] = format: functional, cell-based
[6] = luciferase reporter signal suppression in cells – H4 neuroglioma cells, luminescence, dose response (AID 1990); format: functional, cell-based
INS1 = assay: INS-1E survival protection against cytokine death – cell-based, luminescence, retest, dose response (AID 449756); format: functional; details: Rattus norvegicus;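 further: cell death triggered by IL-1 beta plus TNF-alpha plus IFN-gamma mixture; protective hits raise ATP signal compared with cytokine alone wells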
[7] = alpha-synuclein stem-loop luciferase translation blockers – H4 neuroglioma cells, luminescence, confirmation (AID 1988); format: functional, cell-based
[8] = fluconazole-exposed Candida albicans growth modulators – fluorescence, retest, confirmation (AID 2467); format: functional, cell-based
cells [9] = format: functional, cell-based; remark: listed apart in the source
Cytochrome P450 1A2 = target: T2, Cytochrome P450 1A2 (Homo sapiens, UniProt P05177);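 further: PubChem cytochrome P450 panel assay, CYP1A2 panel member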
T2 sequence (P05177 whole entry): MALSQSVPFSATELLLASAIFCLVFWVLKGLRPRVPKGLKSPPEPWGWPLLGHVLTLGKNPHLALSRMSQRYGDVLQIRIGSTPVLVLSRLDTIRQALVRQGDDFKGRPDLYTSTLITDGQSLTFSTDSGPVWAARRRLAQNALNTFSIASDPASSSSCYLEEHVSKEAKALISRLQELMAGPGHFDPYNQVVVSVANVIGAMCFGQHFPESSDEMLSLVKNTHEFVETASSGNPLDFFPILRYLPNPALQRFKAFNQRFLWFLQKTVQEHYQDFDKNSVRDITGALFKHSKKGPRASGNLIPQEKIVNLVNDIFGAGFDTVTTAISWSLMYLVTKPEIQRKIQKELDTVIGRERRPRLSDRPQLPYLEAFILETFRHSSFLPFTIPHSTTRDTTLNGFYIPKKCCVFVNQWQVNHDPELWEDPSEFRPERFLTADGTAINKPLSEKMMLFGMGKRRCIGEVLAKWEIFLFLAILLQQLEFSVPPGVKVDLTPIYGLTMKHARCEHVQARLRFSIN

Cytochrome P450 2D6 = Cytochrome P450 2D6 (Homo sapiens, UniProt P10635);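 further: CYP2D6 member of a cytochrome P450 panel assay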
Cytochrome P450 3A4 = Cytochrome P450 3A4 (Homo sapiens, UniProt P08684);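 further: CYP3A4 tested as one member of a cytochrome P450 panel screen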
[10] = target: T3, Corticotropin-releasing factor receptor 2/Corticotropin-releasing factor-binding protein (Homo sapiens, UniProt P24387+Q13324); assay: Dose Response confirmation of uHTS hits for small molecule antagonists of the CRF-binding protein and CRF-R2 receptor complex.; format: functional; details: read-out: IC50_Mean
T3 sequence (Q13324 whole entry): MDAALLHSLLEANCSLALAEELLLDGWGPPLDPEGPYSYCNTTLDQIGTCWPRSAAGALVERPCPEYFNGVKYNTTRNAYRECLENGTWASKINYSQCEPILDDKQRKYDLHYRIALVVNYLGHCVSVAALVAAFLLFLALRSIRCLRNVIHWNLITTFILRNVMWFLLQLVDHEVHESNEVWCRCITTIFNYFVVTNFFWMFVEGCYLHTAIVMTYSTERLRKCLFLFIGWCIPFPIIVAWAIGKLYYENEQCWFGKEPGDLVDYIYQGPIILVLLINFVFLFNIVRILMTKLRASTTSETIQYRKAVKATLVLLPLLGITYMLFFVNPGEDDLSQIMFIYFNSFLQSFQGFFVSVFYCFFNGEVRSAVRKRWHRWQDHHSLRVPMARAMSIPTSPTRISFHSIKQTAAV
T3 sequence (P24387 whole entry): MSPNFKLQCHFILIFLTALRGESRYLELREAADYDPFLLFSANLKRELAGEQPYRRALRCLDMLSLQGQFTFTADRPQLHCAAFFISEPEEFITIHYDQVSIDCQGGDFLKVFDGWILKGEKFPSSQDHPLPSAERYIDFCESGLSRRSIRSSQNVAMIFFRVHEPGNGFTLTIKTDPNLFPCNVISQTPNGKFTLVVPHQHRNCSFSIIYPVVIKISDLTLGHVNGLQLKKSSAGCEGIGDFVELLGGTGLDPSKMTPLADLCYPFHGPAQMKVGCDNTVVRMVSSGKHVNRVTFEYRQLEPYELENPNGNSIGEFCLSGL

[11] = target: T3, Corticotropin-releasing factor receptor 2/Corticotropin-releasing factor-binding protein; assay: activators of CRF receptor 2 with binding protein – uHTS hits, confirmation (AID 602473); format: functional; details: read-out: EC50_Mean
[12] = microbe, parasite or virus in culture; format: functional; details: Mycobacterium tuberculosis
BJ [13] = assay: cells; format: functional, cell-based; details: Homo sapiens
BJ [14] = assay: BJ-TERT fibroblast viability loss – cell-based, RAS-independent, luminescence, dose response (AID 1933); format: functional; details: Homo sapiens
[15] = DRD fibroblast viability loss – cell-based, non-viral oncogenic, luminescence, dose response (AID 1934); format: functional; details: Homo sapiens
BJ [16] = assay: BJ-TERT-LT-ST fibroblast viability loss – cell-based, RAS-independent, luminescence, dose response (AID 1935); format: functional; details: Homo sapiens;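 further: BJ fibroblasts immortalized with TERT plus LT and ST oncogenes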
[17] = HEK-293T viability loss after treatment – luminescence, T-cell screen hits, cytotoxicity control for TCR NF-kB inhibitor project, dose response (AID 489026); format: functional, cell-based;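 further: cells exposed to compound about 14 hours before the viability readout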
[18] = target: T4, Rac GTPase-activating protein 1 (Homo sapiens, UniProt Q9H0H5); assay: blockers of MgcRacGAP-driven Rac1 GTP hydrolysis – biochemical, ADP Hunter fluorescence, primary and confirmatory, confirmation (AID 624330); format: functional
T4 sequence (Q9H0H5 whole entry): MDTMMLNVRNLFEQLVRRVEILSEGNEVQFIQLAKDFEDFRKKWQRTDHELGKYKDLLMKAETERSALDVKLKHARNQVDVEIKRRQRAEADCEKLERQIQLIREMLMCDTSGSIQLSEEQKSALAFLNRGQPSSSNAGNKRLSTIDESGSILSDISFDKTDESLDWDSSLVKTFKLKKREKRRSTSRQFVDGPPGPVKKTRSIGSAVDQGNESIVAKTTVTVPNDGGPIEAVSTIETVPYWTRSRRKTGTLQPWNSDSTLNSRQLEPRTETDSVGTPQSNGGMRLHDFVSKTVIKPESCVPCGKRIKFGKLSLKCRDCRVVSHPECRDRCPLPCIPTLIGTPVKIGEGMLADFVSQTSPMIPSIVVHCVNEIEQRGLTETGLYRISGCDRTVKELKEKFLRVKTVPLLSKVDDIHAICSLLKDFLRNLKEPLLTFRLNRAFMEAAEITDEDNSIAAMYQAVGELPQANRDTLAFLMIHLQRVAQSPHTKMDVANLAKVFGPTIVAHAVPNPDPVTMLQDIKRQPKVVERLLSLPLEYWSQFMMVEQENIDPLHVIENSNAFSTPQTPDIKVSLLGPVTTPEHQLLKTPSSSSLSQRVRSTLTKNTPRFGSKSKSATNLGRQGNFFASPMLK

[19] = target: T5, Heat shock factor protein 1 (Mus musculus, UniProt P38532); assay: enhancement of HSF1-driven luciferase signal – cell-based, NIH3T3, luminescence, dose retest, confirmation (AID 435004); format: functional;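 further: stress induced by proteasome inhibitor MG132 added 30 min after compound; luciferase reporter driven by HSF1 response element in NIH3T3 cells; actives raise luminescence as potentiators of the MG132 stress response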
T5 sequence (P38532 whole entry): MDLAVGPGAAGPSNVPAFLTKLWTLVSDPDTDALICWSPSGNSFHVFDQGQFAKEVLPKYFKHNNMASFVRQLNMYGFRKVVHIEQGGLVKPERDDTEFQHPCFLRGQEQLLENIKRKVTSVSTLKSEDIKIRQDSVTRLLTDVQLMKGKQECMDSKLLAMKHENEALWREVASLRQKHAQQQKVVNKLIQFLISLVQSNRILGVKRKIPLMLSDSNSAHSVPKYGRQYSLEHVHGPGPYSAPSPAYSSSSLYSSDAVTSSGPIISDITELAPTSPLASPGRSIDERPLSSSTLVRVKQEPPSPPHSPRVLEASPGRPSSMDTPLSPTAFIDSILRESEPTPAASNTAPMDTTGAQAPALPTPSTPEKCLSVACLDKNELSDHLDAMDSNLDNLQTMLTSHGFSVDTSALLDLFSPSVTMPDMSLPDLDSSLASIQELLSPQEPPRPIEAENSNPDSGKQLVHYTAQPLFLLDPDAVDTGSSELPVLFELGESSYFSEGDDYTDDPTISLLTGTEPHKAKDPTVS

[20] = reduction of Shn3 3'UTR-driven luciferase in osteoblasts – cell-based, Clone20 osteoblasts, firefly luciferase, cherry-picked, dose response (AID 624132); format: functional;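 further: firefly luciferase luminescence from reporter carrying the Shn3 3'UTR in osteoblasts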
[21] = loss of viability in HepG2 cells – cell-based, CellTiter-Glo, cherry-picked, cytotoxicity control for Shn3 inhibitor project, dose response (AID 624134); format: functional
[22] = non-specific 3'UTR reporter inhibition in Clone20-Shn3RL – cell-based, Renilla luciferase, cherry-picked, counter-screen for Shn3 inhibitor project, dose response (AID 624133); format: functional

T1 sequence (P49327 whole entry): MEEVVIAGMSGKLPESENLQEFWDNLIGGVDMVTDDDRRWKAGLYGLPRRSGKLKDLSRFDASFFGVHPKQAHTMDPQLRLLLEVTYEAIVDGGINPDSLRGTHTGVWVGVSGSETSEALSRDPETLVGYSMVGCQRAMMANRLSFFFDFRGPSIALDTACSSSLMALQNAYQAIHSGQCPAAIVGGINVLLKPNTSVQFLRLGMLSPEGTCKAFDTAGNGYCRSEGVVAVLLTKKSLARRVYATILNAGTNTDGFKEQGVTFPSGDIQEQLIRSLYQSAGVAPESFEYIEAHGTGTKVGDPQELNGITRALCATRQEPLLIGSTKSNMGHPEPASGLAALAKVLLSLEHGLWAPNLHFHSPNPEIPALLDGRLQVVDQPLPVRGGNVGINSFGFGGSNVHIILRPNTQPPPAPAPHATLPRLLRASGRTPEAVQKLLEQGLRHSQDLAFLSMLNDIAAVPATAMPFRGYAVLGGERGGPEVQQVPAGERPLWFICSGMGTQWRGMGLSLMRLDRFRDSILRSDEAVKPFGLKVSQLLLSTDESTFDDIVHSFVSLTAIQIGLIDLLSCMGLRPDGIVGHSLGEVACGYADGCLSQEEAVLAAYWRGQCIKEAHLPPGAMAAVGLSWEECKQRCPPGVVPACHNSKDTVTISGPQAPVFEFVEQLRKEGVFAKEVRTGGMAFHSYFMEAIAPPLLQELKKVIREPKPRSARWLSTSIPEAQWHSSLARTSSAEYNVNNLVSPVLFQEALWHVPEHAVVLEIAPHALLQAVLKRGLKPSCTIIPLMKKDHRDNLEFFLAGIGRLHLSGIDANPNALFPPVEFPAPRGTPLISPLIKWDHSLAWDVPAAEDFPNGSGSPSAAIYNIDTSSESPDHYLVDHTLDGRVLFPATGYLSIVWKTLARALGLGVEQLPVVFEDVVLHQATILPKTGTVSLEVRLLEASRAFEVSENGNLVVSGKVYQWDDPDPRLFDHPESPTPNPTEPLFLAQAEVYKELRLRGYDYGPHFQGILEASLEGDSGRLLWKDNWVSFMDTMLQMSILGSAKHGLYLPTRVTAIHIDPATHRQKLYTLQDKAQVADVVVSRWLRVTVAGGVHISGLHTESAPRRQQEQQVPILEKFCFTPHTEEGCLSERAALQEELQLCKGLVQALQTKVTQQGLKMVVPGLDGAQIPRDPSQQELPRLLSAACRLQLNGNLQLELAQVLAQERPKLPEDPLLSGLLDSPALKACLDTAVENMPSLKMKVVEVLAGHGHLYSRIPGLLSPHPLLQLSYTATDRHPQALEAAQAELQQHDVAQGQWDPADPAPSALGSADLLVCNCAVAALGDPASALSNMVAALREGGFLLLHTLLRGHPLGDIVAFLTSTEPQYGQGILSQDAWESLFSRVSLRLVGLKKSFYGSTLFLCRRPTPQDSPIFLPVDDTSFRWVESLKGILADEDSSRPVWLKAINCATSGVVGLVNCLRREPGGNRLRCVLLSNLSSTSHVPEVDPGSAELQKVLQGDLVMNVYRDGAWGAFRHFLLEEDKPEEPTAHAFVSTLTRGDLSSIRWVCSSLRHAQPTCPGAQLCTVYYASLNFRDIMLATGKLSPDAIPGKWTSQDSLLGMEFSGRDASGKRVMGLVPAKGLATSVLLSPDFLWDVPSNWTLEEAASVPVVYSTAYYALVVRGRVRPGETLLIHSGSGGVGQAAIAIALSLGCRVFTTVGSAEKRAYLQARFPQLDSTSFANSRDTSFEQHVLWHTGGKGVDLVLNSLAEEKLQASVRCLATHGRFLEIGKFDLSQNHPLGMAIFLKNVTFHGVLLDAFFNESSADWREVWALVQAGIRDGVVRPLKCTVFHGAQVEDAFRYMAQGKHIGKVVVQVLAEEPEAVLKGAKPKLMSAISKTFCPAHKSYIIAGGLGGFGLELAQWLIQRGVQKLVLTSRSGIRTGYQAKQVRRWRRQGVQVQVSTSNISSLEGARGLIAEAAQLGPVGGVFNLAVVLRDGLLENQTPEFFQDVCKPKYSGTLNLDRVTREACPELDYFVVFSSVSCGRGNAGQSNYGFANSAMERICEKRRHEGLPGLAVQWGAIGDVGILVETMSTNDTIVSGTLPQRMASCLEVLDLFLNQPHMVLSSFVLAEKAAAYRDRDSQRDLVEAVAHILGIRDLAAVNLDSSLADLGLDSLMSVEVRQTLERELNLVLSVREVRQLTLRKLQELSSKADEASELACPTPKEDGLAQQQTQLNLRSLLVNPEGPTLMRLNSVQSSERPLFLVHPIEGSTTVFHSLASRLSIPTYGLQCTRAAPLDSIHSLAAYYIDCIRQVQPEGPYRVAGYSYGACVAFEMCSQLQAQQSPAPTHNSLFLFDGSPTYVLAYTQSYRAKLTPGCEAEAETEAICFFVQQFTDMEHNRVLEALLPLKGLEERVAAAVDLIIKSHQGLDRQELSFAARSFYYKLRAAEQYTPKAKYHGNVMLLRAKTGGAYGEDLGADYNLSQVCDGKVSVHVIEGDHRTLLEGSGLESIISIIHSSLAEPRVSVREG
Cytochrome P450 3A4, sequence (P08684 whole entry): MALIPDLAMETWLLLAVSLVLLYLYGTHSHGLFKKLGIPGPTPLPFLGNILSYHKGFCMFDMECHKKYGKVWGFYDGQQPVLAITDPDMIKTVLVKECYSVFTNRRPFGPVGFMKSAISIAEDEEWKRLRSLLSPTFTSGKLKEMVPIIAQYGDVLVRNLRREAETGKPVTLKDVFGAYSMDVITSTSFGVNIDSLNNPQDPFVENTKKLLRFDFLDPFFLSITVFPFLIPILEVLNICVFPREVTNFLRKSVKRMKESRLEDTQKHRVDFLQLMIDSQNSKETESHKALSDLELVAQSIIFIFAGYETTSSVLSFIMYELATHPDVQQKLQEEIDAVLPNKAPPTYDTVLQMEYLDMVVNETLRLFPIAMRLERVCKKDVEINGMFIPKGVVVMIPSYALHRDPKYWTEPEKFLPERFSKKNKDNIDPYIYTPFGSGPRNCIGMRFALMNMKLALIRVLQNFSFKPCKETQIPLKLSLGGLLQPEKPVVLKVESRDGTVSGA
Cytochrome P450 2D6, sequence (P10635 whole entry): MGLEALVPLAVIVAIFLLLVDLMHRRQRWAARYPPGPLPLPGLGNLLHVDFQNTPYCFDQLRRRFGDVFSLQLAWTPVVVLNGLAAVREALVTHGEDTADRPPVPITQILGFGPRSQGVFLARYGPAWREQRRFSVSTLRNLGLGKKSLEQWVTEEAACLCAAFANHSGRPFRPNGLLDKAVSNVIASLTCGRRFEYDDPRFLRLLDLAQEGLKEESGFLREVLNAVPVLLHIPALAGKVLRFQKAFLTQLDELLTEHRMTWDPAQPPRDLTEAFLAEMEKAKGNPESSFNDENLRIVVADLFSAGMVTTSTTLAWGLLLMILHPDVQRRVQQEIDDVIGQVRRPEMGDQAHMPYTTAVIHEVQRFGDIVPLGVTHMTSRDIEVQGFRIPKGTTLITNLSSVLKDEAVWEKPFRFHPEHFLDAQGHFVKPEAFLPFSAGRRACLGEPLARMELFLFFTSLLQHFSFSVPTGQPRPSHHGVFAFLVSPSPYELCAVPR

C=CCOC(=O)COc1ccc2c(C)c(CC)c(=O)oc2c1
IC50 (Fatty acid synthase [1]): 3.08 µM (active) | IC50 (Fatty acid synthase [2]): 5.57 µM (active)

CCCCCN(CCCCC)C(=O)C(CCC(=O)O)NC(=O)c1ccc(Cl)c(Cl)c1 (centres undefined) [LORGLUMIDE SODIUM]
IC50 (Fatty acid synthase [1]): 5.31 µM (active) | IC50 (Fatty acid synthase [2]): 5.09 µM (active)

C/C(=N\NC(=O)c1cc(-c2cccnc2)nc2ccccc12)c1ccc(O)cc1O
EC50 [3]: 4.94 µM (active) | EC50 [4]: 9.7 µM (active) | EC50 (cells [5]): 10.9 µM (active) | EC50 [6]: 5.99 µM (active) | AC50 (INS1): 0.661 µM (active) | EC50 [7]: 8.88 µM (active) | EC50 [8]: > 38 µM (not active) | EC50 (cells [9]): > 350 µM (not active)

CC(C)c1ccc(/C=N/NC(=O)CN(c2cccc(Cl)c2Cl)S(C)(=O)=O)cc1
IC50 (Fatty acid synthase [1]): 7.36 µM (active) | AC50 (Cytochrome P450 1A2): 25.1 µM (inconclusive) | AC50 (Cytochrome P450 2D6): 28.2 µM (inconclusive) | AC50 (Cytochrome P450 3A4): 28.2 µM (inconclusive) | IC50 (Fatty acid synthase [2]): 10.4 µM (active)

COc1ccc(C(=O)OCC(=O)NCCCc2ccccc2)cc1[N+](=O)[O-]
IC50 (Fatty acid synthase [1]): 4.84 µM (active) | IC50 (Fatty acid synthase [2]): 4.1 µM (active)

O=C(CC1N=C2c3ccccc3N=C(SCc3ccccc3Cl)N2C1=O)NCc1ccco1 (centres undefined)
IC50 [10]: > 47.1 µM (inactive) | EC50 [11]: > 53 µM (inactive)

COc1cc(O)c2c(c1)COC2=O
IC50 [10]: > 47.1 µM (inactive) | EC50 [11]: > 53 µM (inactive)

COc1ccc(NC(=O)CCN2CCCCCC2)cc1
IC50 [10]: > 47.1 µM (inactive) | EC50 [11]: > 53 µM (inactive)

CCCN(C(=O)CCOc1ccc(C(C)(C)C)cc1)c1c(N)n(Cc2ccccc2)c(=O)[nH]c1=O
CC50 [12]: > 40 µM (active)

CCOC(=O)C(C)Oc1cccc2c(=O)n(CC(=O)NCc3ccccc3)ccc12 (centres undefined)
EC50 (BJ [13]): 7.35 µM (active) | EC50 (BJ [14]): 0.772 µM (active) | EC50 [15]: 0.645 µM (active) | EC50 (BJ [16]): 0.785 µM (active) | IC50 [17]: > 80 µM (inactive)

Cc1ccc2c(c1)C(C)CC(C)(C)N2C(=O)CN1CCN(C)CC1 (centres undefined)
IC50 [18]: 73.3 µM (active) | IC50 [10]: > 47.1 µM (inactive) | EC50 [11]: > 53 µM (inactive)

Cc1ccc(C(=O)c2cc([N+](=O)[O-])ccc2N2CCCCC2)cc1C
EC50 (BJ [13]): 35.6 µM (active) | EC50 (BJ [14]): 1.69 µM (active) | EC50 [15]: 0.966 µM (active) | EC50 (BJ [16]): 1.33 µM (active) | IC50 [17]: > 80 µM (inactive)

CCc1ccc(NC(=O)CSc2nc3nnc(C)c-3c(N)n2-c2cccc(OC)c2)cc1
CC50 [12]: 22.6 µM (active) | EC50 [19]: 118 µM (active)

CCN(CC)S(=O)(=O)c1ccc(NC(=O)c2ccc(CN3CCOCC3)cc2)cc1
IC50 [17]: > 80 µM (inactive)

CCCCC1(Cc2ccc([N+](=O)[O-])cc2)C(=O)N(c2ccccc2)N(c2ccccc2)C1=O
AC50 [20]: 10.2 µM (active) | AC50 [21]: 66.8 µM (active) | AC50 (INS1): 3.67 µM (active) | AC50 [22]: 3.42 µM (active)

COC(=O)c1ccc(Oc2cc(C)nc(SC)n2)cc1
IC50 [17]: > 80 µM (inactive)

COc1ccc(Nc2nc3cc(C)ccc3cc2C#N)c(OC)c1
IC50 [17]: > 80 µM (inactive)

COc1ccc(C(=O)N/C(=C\c2cn(S(=O)(=O)N(C)C)c3ccccc23)C(=O)N2CCCC2)cc1
IC50 (Fatty acid synthase [1]): 4.3 µM (active) | IC50 (Fatty acid synthase [2]): 1.47 µM (active)

CC(C)(C)c1cc(Br)c(O)c(N=Nc2ccc(S(=O)(=O)N3CCOCC3)cc2)c1
IC50 (Fatty acid synthase [1]): 2.66 µM (active) | IC50 (Fatty acid synthase [2]): 3.8 µM (active)

CC(=O)N(Cc1ccco1)c1nc(C(=O)Nc2ccc(Cl)cc2)c(C)s1
IC50 [10]: > 47.1 µM (inactive) | EC50 [11]: > 53 µM (inactive)

O=C(NCCOc1ccccc1)c1cc([N+](=O)[O-])ccc1N1CCOCC1
IC50 [17]: > 80 µM (inactive)

CC(=O)N1CCCc2cc(S(=O)(=O)N3CCCC(C(=O)N4CCN(c5cccc(Cl)c5)CC4)C3)ccc21 (centres undefined)
AC50 [20]: 1.9 µM (active) | AC50 [21]: 3.29 µM (active) | AC50 (INS1): 2.88 µM (active) | AC50 [22]: 1.13 µM (active)
